Legend:
OCT1 = biological target: T1, OCT1 (Homo sapiens, UniProt O15245); assay: Stereoselective uptake into OCT1-overexpressing HEK293 cells; conditions: for Clint ± SEM: quotient of vmax over Km; for selectivity ratio at 2 min: human; for Saturable net uptake: result in words;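 as to all read-outs here: enantiomers quantified inside cells by chiral HPLC-MS/MS, uptake normalized to total protein from bicinchoninic acid assay, substrates applied in HBSS+ buffer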
T1 sequence (O15245 1-554): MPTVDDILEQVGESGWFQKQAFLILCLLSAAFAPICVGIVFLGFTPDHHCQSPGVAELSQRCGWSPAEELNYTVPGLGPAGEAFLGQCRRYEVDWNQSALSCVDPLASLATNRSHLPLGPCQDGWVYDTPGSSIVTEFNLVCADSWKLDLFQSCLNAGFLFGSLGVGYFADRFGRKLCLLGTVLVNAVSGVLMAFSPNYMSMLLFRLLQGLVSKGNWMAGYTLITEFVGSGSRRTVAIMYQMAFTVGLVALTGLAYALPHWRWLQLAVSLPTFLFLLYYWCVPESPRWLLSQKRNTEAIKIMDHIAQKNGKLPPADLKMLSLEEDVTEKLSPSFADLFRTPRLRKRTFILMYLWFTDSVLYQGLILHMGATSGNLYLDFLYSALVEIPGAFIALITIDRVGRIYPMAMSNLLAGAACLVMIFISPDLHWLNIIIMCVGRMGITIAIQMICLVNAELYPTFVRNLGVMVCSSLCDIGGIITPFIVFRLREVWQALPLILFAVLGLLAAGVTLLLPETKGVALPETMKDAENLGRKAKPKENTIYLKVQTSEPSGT

DAT = DAT (Homo sapiens, UniProt Q01959); assay: Stereoselective uptake into DAT-overexpressing HEK293 cells; conditions: for Clint ± SEM / Stereoselectivity Vmax / Stereoselectivity Km / Saturable net uptake: DAT; for Clint ± SEM: quotient of vmax over Km; for Stereoselectivity Vmax / Stereoselectivity Km: ratio between enantiomers; for selectivity ratio at 2 min: human; for Saturable net uptake: result in words;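 as to all read-outs here: intracellular accumulation measured by chiral HPLC-MS/MS in stably transfected HEK293 cells, normalized to total protein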
Protocol: (§1) All transport experiments were carried out in HEK293 cells stably overexpressing human MATs or OCTs. […] All cells were regularly cultivated in DMEM supplemented with 10% (v/v) FCS, penicillin (100 U/mL) and streptomycin (100 μg/mL)and kept in culture for no longer than 30 passages.
(§2) For the uptake experiments, 300,000 cells were plated in poly-D-lysine precoated 24-well plates 48 h ahead of the transport experiment. On the day of experiment, cells were initially washed once with 37 °C pre-warmed HBSS+ (Hanks buffered salt solution supplemented with 10 mM HEPES) and subsequently incubated with the substrates dissolved in pre-warmed HBSS+ for exactly two minutes. Incubation was stopped by adding ice-cold HBSS+ followed by two washing steps. After this, cells were lysed with 80% acetonitrile containing 10 ng/mL milnacipran as internal standard for high-performance liquid chromatography coupled to tandem mass spectrometry (HPLC-MS/MS) analysis. For every experiment, two additional wells per cell line were lysed using RIPA buffer for protein quantification. Total protein was quantified using the bicinchoninic acid assay [42]. This was later used for normalization of the uptake data.
(§3) Intracellularly accumulated test substances were quantified by HPLC-MS/MS analysis using a Shimadzu Nexera HPLC system with a SIL-30AC autosampler, a CTO-20AC column oven, a LC-30AD pump, and a CBM-20A controller (Shimadzu, Kyoto, Japan). Stereoselective chromatography was carried out on a [sequence] CBH HPLC column (100 × 3 mm inner dimension with 5 μM particle size; Sigma-Aldrich, Darmstadt, Germany) with a corresponding 10 × 3 mm guard column. Reversed phased chromatography was carried out using an ammonium acetate (NH4Ac) buffered aqueous mobile phase with isopropyl alcohol (IPA) as organic solvent. […] The order of elution of the enantiomers was obtained from available reference literature [43] or by applying enantiopure reference compounds to the chiral HPLC. […] Given the structural similarity of the investigated substances and the fact that separation was performed on the same column with almost identical mobile phases, we assume that this order of elution for our compound set is always the (R)- before the (S)-enantiomer.
(§4) Detection was performed with an API 4000 tandem mass spectrometer (AB SCIEX, Darmstadt, Germany) operating in multiple-reaction-monitoring mode. Quantification was performed using the Analyst 1.6.2 software (AB SCIEX, Darmstadt, Germany) and quantified by comparison to standard curves with known concentrations.
(§5) All uptake data were normalized to protein content to account for variation in the number of seeded sells. Transporter-mediated net uptake was calculated by subtracting uptake into empty vector-transfected control cells from uptake into transporter-transfected cells. Kinetic parameters were then determined after non-linear regression following the Michaelis–Menten equation (v = vmax × [S]/(Km + [S])) using GraphPad Prism (Version 5.01 for Windows, GraphPad Software, La Jolla, CA, USA). Vmax refers to the maximum transport velocity and Km is defined as the substance concentration required to reach half of vmax. The intrinsic clearance Clint was calculated as the quotient of vmax over Km.

NET = NET (Homo sapiens, UniProt P23975); assay: Stereoselective uptake into NET-overexpressing HEK293 cells; conditions: for Clint ± SEM / Stereoselectivity Vmax / Saturable net uptake: NET; for Clint ± SEM: quotient of vmax over Km; for Stereoselectivity Vmax: ratio between enantiomers; for selectivity ratio at 2 min: human; for Saturable net uptake: result in words;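 as to all read-outs here: intracellular enantiomers quantified in cell lysates by chiral HPLC-MS/MS after a 2 min substrate incubation, with uptake normalized to total cellular protein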
Protocol: as §1, §2, §3, §4, §5

[1] = system: OCT2 wild-type versus A270S variant; assay: in vitro; conditions: human, Transporter selectivity, OCT2 wild-type versus A270S, 100 μM racemic substance, two minutes
OCT2 = biological target: T2, OCT2 (Homo sapiens, UniProt O15244); assay: Stereoselective uptake into OCT2 (wild-type)-overexpressing HEK293 cells; conditions: OCT2; for Clint ± SEM: quotient of vmax over Km; for selectivity ratio at 2 min: human, ratio between enantiomers
T2 sequence (O15244 1-555 S270A): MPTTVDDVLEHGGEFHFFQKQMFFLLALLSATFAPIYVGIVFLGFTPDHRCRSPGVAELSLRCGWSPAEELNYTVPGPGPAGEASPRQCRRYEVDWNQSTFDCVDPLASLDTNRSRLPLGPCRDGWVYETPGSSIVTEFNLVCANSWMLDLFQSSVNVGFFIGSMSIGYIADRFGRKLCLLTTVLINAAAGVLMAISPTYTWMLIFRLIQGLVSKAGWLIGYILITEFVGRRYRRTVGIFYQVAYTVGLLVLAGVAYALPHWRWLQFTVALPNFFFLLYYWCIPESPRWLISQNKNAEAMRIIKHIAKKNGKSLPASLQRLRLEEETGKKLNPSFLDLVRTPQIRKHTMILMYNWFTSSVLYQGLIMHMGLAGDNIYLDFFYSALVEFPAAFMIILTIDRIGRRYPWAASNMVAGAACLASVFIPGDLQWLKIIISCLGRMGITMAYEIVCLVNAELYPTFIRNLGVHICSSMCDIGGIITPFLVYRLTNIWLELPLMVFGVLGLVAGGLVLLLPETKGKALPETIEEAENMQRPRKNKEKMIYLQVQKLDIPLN
Protocol: as §1, §2
(§6) Intracellularly accumulated test substances were quantified by HPLC-MS/MS analysis using a Shimadzu Nexera HPLC system with a SIL-30AC autosampler, a CTO-20AC column oven, a LC-30AD pump, and a CBM-20A controller (Shimadzu, Kyoto, Japan). Stereoselective chromatography was carried out on a [sequence] CBH HPLC column (100 × 3 mm inner dimension with 5 μM particle size; Sigma-Aldrich, Darmstadt, Germany) with a corresponding 10 × 3 mm guard column. Reversed phased chromatography was carried out using an ammonium acetate (NH4Ac) buffered aqueous mobile phase with isopropyl alcohol (IPA) as organic solvent. […] The order of elution of the enantiomers was obtained from available reference literature [43] or by applying enantiopure reference compounds to the chiral HPLC. […] However, in every other case where the order of elution was available, the (R)-enantiomer eluted first. Given the structural similarity of the investigated substances and the fact that separation was performed on the same column with almost identical mobile phases, we assume that this order of elution for our compound set is always the (R)- before the (S)-enantiomer.
as §4, §5
(§7) HEK293 cells stably overexpressing wild-type or mutant OCT2 were incubated with 100 μM racemic substance for two minutes.

SERT [2] = biological target: T3, SERT (Homo sapiens, UniProt P31645); assay: Stereoselective uptake into SERT-overexpressing HEK293 cells; conditions: for Clint ± SEM / Saturable net uptake: SERT; for Clint ± SEM: quotient of vmax over Km; for Saturable net uptake: result in words;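 as to all read-outs here: uptake into HEK293 cells stably expressing human SERT over 2 min, enantiomers measured in cell lysate by chiral HPLC-MS/MS, normalized to total protein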
Protocol: as §1, §2
(§8) Intracellularly accumulated test substances were quantified by HPLC-MS/MS analysis using a Shimadzu Nexera HPLC system with a SIL-30AC autosampler, a CTO-20AC column oven, a LC-30AD pump, and a CBM-20A controller (Shimadzu, Kyoto, Japan). […] CBH HPLC column (100 × 3 mm inner dimension with 5 μM particle size; Sigma-Aldrich, Darmstadt, Germany) with a corresponding 10 × 3 mm guard column. Reversed phased chromatography was carried out using an ammonium acetate (NH4Ac) buffered aqueous mobile phase with isopropyl alcohol (IPA) as organic solvent. […] The order of elution of the enantiomers was obtained from available reference literature [43] or by applying enantiopure reference compounds to the chiral HPLC.
as §4
(§9) All uptake data were normalized to protein content to account for variation in the number of seeded sells. Transporter-mediated net uptake was calculated by subtracting uptake into empty vector-transfected control cells from uptake into transporter-transfected cells. […] Vmax refers to the maximum transport velocity and Km is defined as the substance concentration required to reach half of vmax. The intrinsic clearance Clint was calculated as the quotient of vmax over Km.

OCT3 = biological target: T4, OCT3 (Homo sapiens, UniProt O75751); assay: Stereoselective uptake into OCT3-overexpressing HEK293 cells; conditions: for Clint ± SEM / Stereoselectivity Vmax / Stereoselectivity Km / Saturable net uptake: OCT3; for Clint ± SEM: quotient of vmax over Km; for Stereoselectivity Vmax / Stereoselectivity Km: ratio between enantiomers; for Stereoselectivity Vmax: given as for (R) or for 1; for Stereoselectivity Km: given as for (R) or for 1 (first-eluting); for selectivity ratio at 2 min: human; for Saturable net uptake: result in words;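 as to all read-outs here: intracellular accumulation in HEK293 cells measured by chiral HPLC-MS/MS after a 2 min substrate exposure at 37 °C, uptake normalized to total protein (bicinchoninic acid assay)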
T4 sequence (O75751 1-556): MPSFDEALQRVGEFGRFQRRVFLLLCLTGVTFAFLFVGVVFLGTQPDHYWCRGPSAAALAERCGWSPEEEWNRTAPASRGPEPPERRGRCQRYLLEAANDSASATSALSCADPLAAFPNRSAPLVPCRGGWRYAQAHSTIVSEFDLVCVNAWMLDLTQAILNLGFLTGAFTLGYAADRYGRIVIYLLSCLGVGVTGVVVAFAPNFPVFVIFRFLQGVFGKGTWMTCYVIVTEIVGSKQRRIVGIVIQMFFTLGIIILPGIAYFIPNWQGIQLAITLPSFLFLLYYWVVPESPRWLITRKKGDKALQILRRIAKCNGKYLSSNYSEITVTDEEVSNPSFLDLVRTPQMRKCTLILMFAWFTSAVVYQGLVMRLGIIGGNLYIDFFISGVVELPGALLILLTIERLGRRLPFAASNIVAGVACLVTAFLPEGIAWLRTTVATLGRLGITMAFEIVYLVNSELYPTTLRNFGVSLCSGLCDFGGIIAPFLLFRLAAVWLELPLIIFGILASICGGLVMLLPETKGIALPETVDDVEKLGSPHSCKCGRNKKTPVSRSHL
Protocol: as §1, §2, §3, §4, §5

SERT [3] = biological target: T3, SERT; assay: in vitro
Protocol: as §1, §2, §8, §4, §9

OCT2 A270S variant = assay: in vitro; conditions: human, Stereoselectivity OCT2_A270S, 100 μM racemic substance, two minutes, uptake ratio of enantiomers
OCT2 (wild-type) = biological target: T5, OCT2 (wild-type) (Homo sapiens, UniProt O15244); assay: Stereoselective uptake into OCT2 (wild-type)-overexpressing HEK293 cells; conditions: human, Stereoselectivity OCT2_WT, 100 μM racemic substance, two minutes; uptake ratio of enantiomers, given as for (R)
T5 sequence (O15244 1-555 S270A): T2 sequence (O15244 1-555 S270A)
Protocol: as §1, §2, §6, §4, §5, §7

[4] = Stereoselectivity Vmax, OCT1, ratio between enantiomers, given as for (R) or for 1
[5] = Stereoselectivity ClInt, given as for (R) or for 1
[6] = Stereoselectivity Km, given as for (R) or for 1 (first-eluting)
[7] = Stereoselectivity Vmax, given as for (R) or for 1

Chain of NET (P23975 whole entry): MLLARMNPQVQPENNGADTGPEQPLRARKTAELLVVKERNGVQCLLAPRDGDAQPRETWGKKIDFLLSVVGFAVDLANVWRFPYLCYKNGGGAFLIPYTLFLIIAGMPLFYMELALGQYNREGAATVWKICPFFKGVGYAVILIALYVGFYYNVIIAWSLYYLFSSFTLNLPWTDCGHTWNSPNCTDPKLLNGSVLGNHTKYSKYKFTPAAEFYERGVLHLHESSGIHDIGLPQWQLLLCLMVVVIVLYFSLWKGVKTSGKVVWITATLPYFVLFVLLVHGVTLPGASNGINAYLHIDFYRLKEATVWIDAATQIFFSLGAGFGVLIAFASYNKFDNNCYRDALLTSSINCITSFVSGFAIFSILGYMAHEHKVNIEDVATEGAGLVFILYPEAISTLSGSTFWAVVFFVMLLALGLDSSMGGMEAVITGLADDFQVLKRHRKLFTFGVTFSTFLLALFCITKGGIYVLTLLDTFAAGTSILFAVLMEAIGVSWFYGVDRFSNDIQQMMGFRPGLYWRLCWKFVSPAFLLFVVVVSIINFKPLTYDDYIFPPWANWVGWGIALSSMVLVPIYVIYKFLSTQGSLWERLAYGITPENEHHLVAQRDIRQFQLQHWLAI
T3 sequence (P31645 whole entry): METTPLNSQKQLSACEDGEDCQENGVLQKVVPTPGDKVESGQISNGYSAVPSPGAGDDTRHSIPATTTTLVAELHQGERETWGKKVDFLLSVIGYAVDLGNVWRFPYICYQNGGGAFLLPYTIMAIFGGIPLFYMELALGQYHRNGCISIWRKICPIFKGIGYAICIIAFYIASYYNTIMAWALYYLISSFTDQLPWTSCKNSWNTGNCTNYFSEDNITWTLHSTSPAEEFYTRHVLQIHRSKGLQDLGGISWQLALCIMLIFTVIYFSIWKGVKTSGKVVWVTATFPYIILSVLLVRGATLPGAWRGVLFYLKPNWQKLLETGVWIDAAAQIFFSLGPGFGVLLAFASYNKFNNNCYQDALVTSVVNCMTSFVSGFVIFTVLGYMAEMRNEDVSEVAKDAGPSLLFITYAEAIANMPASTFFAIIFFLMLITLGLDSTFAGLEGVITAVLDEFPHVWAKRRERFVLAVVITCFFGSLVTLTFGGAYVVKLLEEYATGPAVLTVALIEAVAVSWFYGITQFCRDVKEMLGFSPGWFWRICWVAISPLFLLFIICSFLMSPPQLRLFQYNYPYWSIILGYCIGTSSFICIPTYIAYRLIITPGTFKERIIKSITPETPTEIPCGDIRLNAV
Chain of DAT (Q01959 whole entry): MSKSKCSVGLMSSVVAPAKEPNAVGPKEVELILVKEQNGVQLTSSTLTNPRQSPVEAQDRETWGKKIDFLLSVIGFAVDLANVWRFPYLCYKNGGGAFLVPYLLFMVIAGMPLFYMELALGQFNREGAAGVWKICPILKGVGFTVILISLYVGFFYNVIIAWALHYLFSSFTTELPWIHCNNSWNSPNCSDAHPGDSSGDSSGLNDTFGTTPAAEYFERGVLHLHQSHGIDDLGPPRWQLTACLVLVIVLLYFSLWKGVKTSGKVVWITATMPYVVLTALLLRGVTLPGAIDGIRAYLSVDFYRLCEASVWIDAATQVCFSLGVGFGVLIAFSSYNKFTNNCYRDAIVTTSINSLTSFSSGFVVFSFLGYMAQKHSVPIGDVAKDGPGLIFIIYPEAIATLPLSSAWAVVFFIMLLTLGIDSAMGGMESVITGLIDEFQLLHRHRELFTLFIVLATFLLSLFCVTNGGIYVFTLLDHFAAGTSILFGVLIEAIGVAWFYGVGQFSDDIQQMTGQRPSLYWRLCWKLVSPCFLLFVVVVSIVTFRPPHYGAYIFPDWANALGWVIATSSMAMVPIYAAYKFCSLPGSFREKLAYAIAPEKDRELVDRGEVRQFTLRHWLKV

NCC(O)c1cccc(O)c1 (single isomer, unassigned) [Norphenylephrine-1, Norphenylephrine]
Clint ± SEM (OCT1; OCT1): 4.02 mL × g Protein^−1 × min^−1
selectivity ratio at 2 min (OCT1; Stereoselectivity ClInt): 1.05
selectivity ratio at 2 min (OCT1; Stereoselectivity Km, OCT1, ratio between enantiomers, given as for (R) or for 1 (first-eluting)): 1.03
selectivity ratio at 2 min (OCT1; [4]): 1.08
Clint ± SEM (DAT): 128 mL × g Protein^−1 × min^−1
Stereoselectivity Vmax (DAT; given as for (S) or for 2): 1.55 fold
Stereoselectivity Km (DAT; given as for (S) or for 2 (second-eluting)): 1.20 fold
selectivity ratio at 2 min (DAT): 1.29
Clint ± SEM (NET): 189 mL × g Protein^−1 × min^−1
Stereoselectivity Vmax (NET; given as for (S) or for 2): 1.25 fold
selectivity ratio at 2 min (NET): 1.21
selectivity ratio at 2 min, 100 μM ([1]; given as for WT): 1.18
Clint ± SEM (OCT2): 36.4 mL × g Protein^−1 × min^−1
selectivity ratio at 2 min (OCT2; [5]): 1.4
selectivity ratio at 2 min (OCT2; [6]): 1.57
selectivity ratio at 2 min (OCT2; [7]): 2.19
Stereoselectivity Km (SERT [2]): 1.20 fold
Stereoselectivity Vmax (SERT [2]): 1.27 fold
Clint ± SEM (SERT [2]): 1.20 mL × g Protein^−1 × min^−1
Clint ± SEM (OCT3): 11.0 mL × g Protein^−1 × min^−1
Stereoselectivity Vmax (OCT3): 3.88 fold
Stereoselectivity Km (OCT3): 1.17 fold
selectivity ratio at 2 min (OCT3): 3.32
selectivity ratio (SERT [3]): 1.53

CNC[C@H](O)c1cccc(O)c1 [(R)-Phenylephrine]
Clint ± SEM (OCT1; OCT1): 9.79 mL × g Protein^−1 × min^−1
selectivity ratio at 2 min (OCT1; Stereoselectivity ClInt): 1.11
selectivity ratio at 2 min (OCT1; Stereoselectivity Km, OCT1, ratio between enantiomers, given as for (S) or for 2 (second-eluting)): 1.02
selectivity ratio at 2 min (OCT1; [4]): 1.08
Clint ± SEM (DAT): 17.2 mL × g Protein^−1 × min^−1
Stereoselectivity Vmax (DAT; given as for (R) or for 1): 1.56 fold
Stereoselectivity Km (DAT; given as for (R) or for 1 (first-eluting)): 1.06 fold
Vmax ± SEM (DAT; HEK293 cells overexpressing human DAT, racemic substrate, two minutes, net uptake): 613 pmol × mg Protein^−1 × min^−1
selectivity ratio at 2 min (DAT): 1.48
Km (DAT; read-out: Km ± SEM, HEK293 cells overexpressing human DAT, racemic substrate, two minutes, net uptake minus empty vector control): 35.6 µM
Vmax ± SEM (NET; HEK293 cells overexpressing human NET, racemic substrate, two minutes, net uptake): 392 pmol × mg Protein^−1 × min^−1
Clint ± SEM (NET): 75.5 mL × g Protein^−1 × min^−1
Stereoselectivity Vmax (NET; given as for (R) or for 1): 1.79 fold
selectivity ratio at 2 min (NET): 1.43
Km (NET; read-out: Km ± SEM, HEK293 cells overexpressing human NET, racemic substrate, two minutes, net uptake minus empty vector control): 5.12 µM
selectivity ratio at 2 min, 100 μM ([1]; given as for WT): 1.27
Clint ± SEM (OCT2): 29.5 mL × g Protein^−1 × min^−1
selectivity ratio at 2 min (OCT2; Stereoselectivity ClInt, given as for (S) or for 2): 1.02
selectivity ratio at 2 min (OCT2; [6]): 1.89
selectivity ratio at 2 min (OCT2; [7]): 2.04
Stereoselectivity Km (SERT [2]): 1.89 fold
Stereoselectivity Vmax (SERT [2]): 1.49 fold
Vmax ± SEM (SERT [2]): 356
Clint ± SEM (SERT [2]): 17.2 mL × g Protein^−1 × min^−1
Km (SERT [2]; read-out: Km ± SEM, HEK293 cells overexpressing human SERT, racemic substrate, two minutes, net uptake minus empty vector control): 328 µM
Clint ± SEM (OCT3): 11.8 mL × g Protein^−1 × min^−1
Stereoselectivity Vmax (OCT3): 3.33 fold
Stereoselectivity Km (OCT3): 1.19 fold
selectivity ratio at 2 min (OCT3): 2.79
selectivity ratio (SERT [3]): 2.82

NCC(O)c1ccccc1 (stereo not shown) [Bisnorephedrine]
selectivity ratio at 2 min, 100 μM (OCT2 A270S variant; given as for (S)): 1.09
selectivity ratio at 2 min, 100 μM (OCT2 (wild-type)): 1.1

CNCC(O)c1ccccc1 (stereo not shown) [Halostachine-1, Halostachine]
Saturable net uptake (OCT1; OCT1): No saturable net uptake
Saturable net uptake (DAT): No saturable net uptake
Saturable net uptake (NET): No saturable net uptake
selectivity ratio at 2 min, 100 μM ([1]; given as for WT): 1.02
Clint ± SEM (OCT2): 25.7 mL × g Protein^−1 × min^−1
selectivity ratio at 2 min (OCT2; [5]): 1.89
selectivity ratio at 2 min (OCT2; Stereoselectivity Km, given as for (S) or for 2 (second-eluting)): 1.5
selectivity ratio at 2 min (OCT2; [7]): 1.26
Saturable net uptake (SERT [2]): No saturable net uptake
Saturable net uptake (OCT3): No saturable net uptake

CNCC(O)c1ccccc1 (stereo not shown) [Halostachine-2, Halostachine]
Saturable net uptake (OCT1; OCT1): No saturable net uptake
Saturable net uptake (DAT): No saturable net uptake
Saturable net uptake (NET): No saturable net uptake
selectivity ratio at 2 min, 100 μM ([1]; given as for A270S): 1.05
Clint ± SEM (OCT2): 13.6 mL × g Protein^−1 × min^−1
Saturable net uptake (SERT [2]): No saturable net uptake
Saturable net uptake (OCT3): No saturable net uptake

CNCC(O)c1ccccc1 (stereo not shown) [Halostachine]
selectivity ratio at 2 min, 100 μM (OCT2 A270S variant; given as for (R)): 1.32
selectivity ratio at 2 min, 100 μM (OCT2 (wild-type)): 1.42

CNCC(O)c1ccc(O)c(OC)c1 (stereo not shown) [Metanephrine]
selectivity ratio at 2 min, 100 μM (OCT2 A270S variant; given as for (R)): 2.26
selectivity ratio at 2 min, 100 μM (OCT2 (wild-type)): 2.78

COc1cc(C(O)CN)ccc1O (stereo not shown) [Normetanephrine]
selectivity ratio at 2 min, 100 μM (OCT2 A270S variant; given as for (R)): 1.7
selectivity ratio at 2 min, 100 μM (OCT2 (wild-type)): 1.91

Reference: article PMC9599461, “Stereoselectivity in the Membrane Transport of Phenylethylamine Derivatives by Human Monoamine Transporters and Organic Cation Transporters 1, 2, and 3” (Biomolecules, 2022)
